The values below come from PubChem BioAssay (NCI).

Each structure is given as a SMILES string.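 Tested at 5 concentrations; 48 h exposure; 96-well plates; endpoints linearly interpolated, else capped at highest concentration. The concentration for 50% growth inhibition is given as GI50. TGI denotes the concentration required for complete inhibition of growth.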 Where a SMILES comes first, the peptide text is derived from it. [ ]: non-standard residue; d: D form. ξ: configuration not given here. Pentanoyl(2-O,4-OH,5-Cl) = O=C(O)C(O)CC(O)CCl; Ile(3ξ) = CCC(C)[C@H](N)C(=O)O; NMeV = CN[C@H](C(=O)O)C(C)C; NMeA = CN[C@@H](C)C(=O)O; βAla = NCCC(=O)O

Holding throughout (test): NCI tumour cell line growth inhibition, 48 h
Test [1] has as its system DLD-1 colon.
Test [2] concerns DMS 114 small cell lung.
Test [3] relates to KM20L2 colon.
Test [4] concerns DMS 273 small cell lung.
Test [5] has as its system SNB-78 CNS.
In test [6] the test system is HOP-18 NSCLC.
Test [7] deals with RXF-631 renal.
Test [8] concerns LXFL 529 NSCLC.
Test [9] deals with MDA-N.
Test [10] deals with P388/ADR leukemia.
In test [11] the test system is SN12K1 renal.

With `O=c1c2ccccc2c(=O)n2n1-c1cccc(c1)CSSCc1cccc-2c1`, the GI50 in test [1], in test [2], in test [4], in [6], in test [7] and in test [8] was above 100 µM in each case. In addition, the TGI in test [1], in test [2], in [3], in [4], in test [5] and in [6] was above 100 µM in each case. The TGI in test [7] and in test [8] was above 100 µM in each case.
Consider `O=C(O)c1ccccc1NS(=O)(=O)c1ccc(Cl)cc1`, for which the TGI in test [1], in [2], in [3], in test [4], in test [5] and in test [6] was above 100 µM in each case. Moreover, the TGI in test [8] was above 100 µM.
As for `CC(C)(Sc1cc(C(C)(C)C)c(O)c(C(C)(C)C)c1)Sc1cc(C(C)(C)C)c(O)c(C(C)(C)C)c1`, in test [9], the TGI was above 100 µM.
Consider `O=C(c1ccccc1)c1nc2ccc(Cl)cc2cc1C(Br)Br`, for which the TGI was found to be 0.706 µM in test [1]; 4.02 µM in test [2]; 0.808 µM in [3]; 0.966 µM in test [4]; 1.31 µM in test [6]; 0.77 µM in test [8].
Regarding `O=c1cc(-c2cccc(Cl)c2)[nH]c2cc3c(cc12)OCO3`, the TGI in test [1] stood at 8.57 µM; in test [2], 4.23 µM; in [4], 75 µM; in test [6] it was 34.4 µM; in test [8], 2.73 µM; in [9] it was 0.158 µM.
`COc1ccc2c(c1[N+](=O)[O-])CC[C@@H]1[C@@H]2CC[C@]2(C)C(=O)CC[C@@H]12`: the TGI was above 25 µM in test [1]; 25 µM in test [2]; 25 µM in test [10]; above 25 µM in test [3]; above 25 µM in test [4]; 25 µM in [5]. The figures for the TGI in test [11], in test [6] and in test [9] were above 25 µM, above 25 µM and above 1000 µM, respectively. For the same molecule, the GI50 in test [9] is above 25 µM.
The molecule `CCC(C)[C@@H]1NC(=O)[C@@H]2CCCN2C(=O)C(CC(O)CCl)OC(=O)CCNC(=O)[C@H](C)N(C)C(=O)[C@H](C(C)C)N(C)C1=O` (some centres not stated) (cyclo([Ile(3ξ)][NMeV][NMeA][βAla][Pentanoyl(2-O,4-OH,5-Cl)]P)) registered a TGI in [9] above 100 µM.
As to `CC1COS(=O)N1c1ccccc1` (configuration not stated), the TGI in test [1], in [2], in test [3], in test [4], in test [6] and in test [8] was above 100 µM in each case.
Turning to `O=C1c2ccccc2C(=O)N1C/C=N/NS(=O)(=O)c1cccc([N+](=O)[O-])c1`, the TGI in test [1], in [2], in test [3], in test [4] and in test [8] was above 100 µM in each case.
For the molecule `CSC(=Nc1ccc([N+](=O)[O-])cc1C#N)NC(=O)c1ccccc1`, the TGI in [1], in test [2], in [3], in test [5], in test [6] and in [7] was above 100 µM in each case. The same molecule came in with a TGI in test [8] above 100 µM.
Take `CCC(=O)N1C(=S)SC[C@H]1C(=O)OC`: the TGI in test [1], in test [2], in test [3], in [4], in test [5] and in [6] was above 100 µM in each case. Also, in [8], the TGI is above 100 µM.
As for `CN(C)CCN1C(=O)c2cccc3cc(N)cc(c23)C1=O`, the TGI in test [1] came out at 27.7 µM; in test [2], 12.7 µM; in test [10], 11.8 µM; in test [3] it was 23.5 µM; in test [4], 8.22 µM; in [11], 7.43 µM. For the same molecule, the TGI in test [6] turned out to be 33.7 µM; in [9], 13.4 µM.
In the case of `CC[O-].CC[O-].[O-]c1ccccc1C=NC12CC3CC(CC(C3)C1)C2.[O-]c1ccccc1C=NC12CC3CC(CC(C3)C1)C2.[Ti+4]`, the GI50 in test [1] was 11.1 µM; in test [2] it was 23.4 µM; in test [3], 45.6 µM; in test [4] it was above 100 µM; in test [5], above 100 µM; in [6], 85.5 µM. The GI50 in test [7] is 29.4 µM; in test [8], 23.5 µM. Also, the TGI in test [1], in test [2], in test [3], in [4], in [5] and in test [6] was above 100 µM each time. Moreover, the TGI in test [7] and in [8] was above 100 µM in each case.
For `Cc1cc[c]([Sb]2[O]C(CO)C(C(O)C(O)C(=O)O)[O]2)cc1` (configuration not stated), in test [9], the GI50 is 43.5 µM and the TGI is above 100 µM.
`[O-]c1ccccc1C=NCCN=Cc1ccccc1[O-].[O]=[U+2]=[O]`: the GI50 in [1] is 27 µM; in [3], above 100 µM; in test [4], 32.5 µM; in test [6], 31.2 µM; in [8], 17.8 µM. Further, the TGI in [1] was above 100 µM; in [3], above 100 µM; in [4], above 100 µM; in [6] it was above 77.1 µM; in [8] it was 53.3 µM.
Take `Clc1ccc(NCNC2Nc3ccccc3N2)cc1Cl`: in test [9], the TGI was above 100 µM.
